Assay results from ChEMBL document CHEMBL5579895, “Discovery of TYRA-300: First Oral Selective FGFR3 Inhibitor for the Treatment of Urothelial Cancers and Achondroplasia” (J Med Chem, 2024).
In brackets after ≈: the same amount, converted by molar mass.

Tests used:
[1] = Oral bioavailability in dog at 10 mg/kg measured for 24 hrs by LC-MS/MS analysis; assay type: ADME, organism-based, Canis lupus familiaris; conditions: in vivo
[2] = Clearance in monkey at 1 mg/kg, iv measured for 24 hrs by LC-MS/MS analysis; assay type: ADME, organism-based, Macaca mulatta; conditions: rhesus monkey, in vivo
[3] = AUC (last) in dog at 1 mg/kg, iv measured for 24 hrs by LC-MS/MS analysis; assay type: ADME, organism-based, Canis lupus familiaris; conditions: in vivo
RT-4 = assay: Inhibition of cell viability in human RT-4 cells harboring FGFR3/TACC3 fusion incubated for 72 to 120 hrs by Cell Titer Glo assay; assay type: functional, cell-based
[4] = target: Fibroblast growth factor receptor 1 (Homo sapiens, UniProt P11362); assay: Inhibition of human FGFR1 by KINOMEscan analysis
Fibroblast growth factor receptor 1, sequence (P11362 whole entry): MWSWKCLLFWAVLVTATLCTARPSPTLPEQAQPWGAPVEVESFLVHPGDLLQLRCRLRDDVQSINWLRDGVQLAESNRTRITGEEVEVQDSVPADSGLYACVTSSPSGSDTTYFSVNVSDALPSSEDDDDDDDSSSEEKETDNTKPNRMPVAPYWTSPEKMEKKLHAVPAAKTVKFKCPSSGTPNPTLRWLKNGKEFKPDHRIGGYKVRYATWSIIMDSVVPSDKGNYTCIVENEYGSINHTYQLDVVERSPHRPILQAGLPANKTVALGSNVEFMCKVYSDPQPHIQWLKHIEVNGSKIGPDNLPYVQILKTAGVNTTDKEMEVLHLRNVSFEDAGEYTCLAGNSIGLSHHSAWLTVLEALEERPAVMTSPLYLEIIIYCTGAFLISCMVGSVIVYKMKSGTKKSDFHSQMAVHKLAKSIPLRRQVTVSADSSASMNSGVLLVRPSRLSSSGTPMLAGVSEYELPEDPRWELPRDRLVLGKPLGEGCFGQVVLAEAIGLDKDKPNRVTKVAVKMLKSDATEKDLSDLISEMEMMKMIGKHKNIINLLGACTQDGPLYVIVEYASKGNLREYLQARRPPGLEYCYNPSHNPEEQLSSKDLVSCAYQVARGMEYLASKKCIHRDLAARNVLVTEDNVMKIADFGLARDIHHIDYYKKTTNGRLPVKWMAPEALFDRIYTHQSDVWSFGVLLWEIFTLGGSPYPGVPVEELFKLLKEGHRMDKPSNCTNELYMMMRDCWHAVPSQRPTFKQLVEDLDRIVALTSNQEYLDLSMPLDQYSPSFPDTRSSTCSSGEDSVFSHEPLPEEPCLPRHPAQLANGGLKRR

[5] = target: T1, Fibroblast growth factor receptor 3 (Homo sapiens, UniProt P22607); assay: Inhibition of wild-type FGFR3 (unknown origin) by mobility shift assay
T1 sequence (P22607 whole entry): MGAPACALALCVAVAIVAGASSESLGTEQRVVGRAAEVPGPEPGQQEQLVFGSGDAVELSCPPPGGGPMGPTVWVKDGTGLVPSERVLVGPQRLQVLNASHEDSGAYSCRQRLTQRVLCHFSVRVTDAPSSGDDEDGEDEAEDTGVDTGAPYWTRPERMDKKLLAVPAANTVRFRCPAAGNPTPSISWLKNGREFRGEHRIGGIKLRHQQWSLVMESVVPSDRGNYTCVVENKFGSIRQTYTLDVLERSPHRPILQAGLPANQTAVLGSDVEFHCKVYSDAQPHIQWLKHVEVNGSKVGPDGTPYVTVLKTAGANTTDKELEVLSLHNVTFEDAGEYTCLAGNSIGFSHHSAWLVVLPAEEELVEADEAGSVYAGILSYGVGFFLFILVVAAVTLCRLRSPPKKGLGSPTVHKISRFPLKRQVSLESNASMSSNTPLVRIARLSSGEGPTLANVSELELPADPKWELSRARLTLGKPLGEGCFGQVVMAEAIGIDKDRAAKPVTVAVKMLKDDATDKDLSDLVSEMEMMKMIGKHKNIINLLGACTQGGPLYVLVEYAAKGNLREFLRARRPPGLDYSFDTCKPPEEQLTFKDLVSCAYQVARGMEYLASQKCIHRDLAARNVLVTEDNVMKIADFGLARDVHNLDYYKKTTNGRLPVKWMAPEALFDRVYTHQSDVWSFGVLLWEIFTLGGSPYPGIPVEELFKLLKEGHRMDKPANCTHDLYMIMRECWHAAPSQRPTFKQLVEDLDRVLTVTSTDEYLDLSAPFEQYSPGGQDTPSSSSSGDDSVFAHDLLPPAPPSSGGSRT

[6] = Volume of distribution in monkey at 1 mg/kg, iv measured for 24 hrs by LC-MS/MS analysis; assay type: ADME, organism-based, Macaca mulatta; conditions: rhesus monkey, in vivo
[7] = Stability in rat hepatocytes assessed as half life at 1 uM incubated upto 180 mins by LC-MS/MS analysis; assay type: ADME, cell-based, Hepatocyte
[8] = target: Voltage-gated inwardly rectifying potassium channel KCNH2 (Homo sapiens, UniProt Q12809); assay: Inhibition of hERG expressed in CHO cells by automated patch-clamp assay; assay type: toxicity, cell-based
Voltage-gated inwardly rectifying potassium channel KCNH2, sequence (Q12809 whole entry): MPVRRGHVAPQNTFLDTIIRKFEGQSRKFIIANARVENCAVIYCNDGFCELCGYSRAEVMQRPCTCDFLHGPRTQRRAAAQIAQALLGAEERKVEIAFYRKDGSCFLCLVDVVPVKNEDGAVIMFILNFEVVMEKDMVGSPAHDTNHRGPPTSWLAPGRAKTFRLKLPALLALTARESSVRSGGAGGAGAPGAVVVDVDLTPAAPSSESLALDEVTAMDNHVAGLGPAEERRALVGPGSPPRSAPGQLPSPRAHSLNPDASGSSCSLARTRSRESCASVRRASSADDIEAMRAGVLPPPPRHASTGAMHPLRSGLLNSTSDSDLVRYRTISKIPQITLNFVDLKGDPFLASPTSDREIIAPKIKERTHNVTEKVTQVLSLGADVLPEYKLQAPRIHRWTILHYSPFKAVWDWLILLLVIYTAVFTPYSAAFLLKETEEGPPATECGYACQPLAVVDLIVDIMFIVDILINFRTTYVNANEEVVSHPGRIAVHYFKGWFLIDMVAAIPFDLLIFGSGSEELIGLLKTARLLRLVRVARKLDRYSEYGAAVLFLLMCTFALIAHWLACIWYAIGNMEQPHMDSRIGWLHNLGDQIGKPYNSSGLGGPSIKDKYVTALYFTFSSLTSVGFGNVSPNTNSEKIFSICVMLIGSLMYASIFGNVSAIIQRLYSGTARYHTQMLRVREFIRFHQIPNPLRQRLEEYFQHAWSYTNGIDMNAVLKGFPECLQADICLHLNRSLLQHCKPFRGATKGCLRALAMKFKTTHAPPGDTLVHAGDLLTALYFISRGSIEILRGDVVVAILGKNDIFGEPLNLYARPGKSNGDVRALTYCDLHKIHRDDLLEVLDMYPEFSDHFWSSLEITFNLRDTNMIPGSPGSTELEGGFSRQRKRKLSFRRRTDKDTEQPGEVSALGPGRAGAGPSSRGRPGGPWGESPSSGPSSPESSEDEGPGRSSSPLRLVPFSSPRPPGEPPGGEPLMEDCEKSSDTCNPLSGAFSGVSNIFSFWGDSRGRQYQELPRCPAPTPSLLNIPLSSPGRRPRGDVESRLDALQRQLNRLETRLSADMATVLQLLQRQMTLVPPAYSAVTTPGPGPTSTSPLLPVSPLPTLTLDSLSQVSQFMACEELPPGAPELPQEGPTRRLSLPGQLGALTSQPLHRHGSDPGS

[9] = Stability in dog hepatocytes assessed as half life at 1 uM incubated upto 180 mins by LC-MS/MS analysis; assay type: ADME, cell-based, Canis lupus familiaris, Hepatocyte
[10] = Half life in Sprague-Dawley rat at 2 mg/kg, iv measured for 24 hrs by LC-MS/MS analysis; assay type: ADME, organism-based; conditions: in vivo
[11] = Half life in dog at 1 mg/kg, iv measured for 24 hrs by LC-MS/MS analysis; assay type: ADME, organism-based, Canis lupus familiaris; conditions: in vivo
[12] = Cmax in Sprague-Dawley rat at 10 mg/kg, po measured for 24 hrs by LC-MS/MS analysis; assay type: ADME, organism-based; conditions: in vivo
[13] = target: T2, Vascular endothelial growth factor receptor 2 (Homo sapiens, UniProt P35968); assay: Inhibition of human VEGFR2 at 100 nM by KINOMEscan analysis relative to control
T2 sequence (P35968 whole entry): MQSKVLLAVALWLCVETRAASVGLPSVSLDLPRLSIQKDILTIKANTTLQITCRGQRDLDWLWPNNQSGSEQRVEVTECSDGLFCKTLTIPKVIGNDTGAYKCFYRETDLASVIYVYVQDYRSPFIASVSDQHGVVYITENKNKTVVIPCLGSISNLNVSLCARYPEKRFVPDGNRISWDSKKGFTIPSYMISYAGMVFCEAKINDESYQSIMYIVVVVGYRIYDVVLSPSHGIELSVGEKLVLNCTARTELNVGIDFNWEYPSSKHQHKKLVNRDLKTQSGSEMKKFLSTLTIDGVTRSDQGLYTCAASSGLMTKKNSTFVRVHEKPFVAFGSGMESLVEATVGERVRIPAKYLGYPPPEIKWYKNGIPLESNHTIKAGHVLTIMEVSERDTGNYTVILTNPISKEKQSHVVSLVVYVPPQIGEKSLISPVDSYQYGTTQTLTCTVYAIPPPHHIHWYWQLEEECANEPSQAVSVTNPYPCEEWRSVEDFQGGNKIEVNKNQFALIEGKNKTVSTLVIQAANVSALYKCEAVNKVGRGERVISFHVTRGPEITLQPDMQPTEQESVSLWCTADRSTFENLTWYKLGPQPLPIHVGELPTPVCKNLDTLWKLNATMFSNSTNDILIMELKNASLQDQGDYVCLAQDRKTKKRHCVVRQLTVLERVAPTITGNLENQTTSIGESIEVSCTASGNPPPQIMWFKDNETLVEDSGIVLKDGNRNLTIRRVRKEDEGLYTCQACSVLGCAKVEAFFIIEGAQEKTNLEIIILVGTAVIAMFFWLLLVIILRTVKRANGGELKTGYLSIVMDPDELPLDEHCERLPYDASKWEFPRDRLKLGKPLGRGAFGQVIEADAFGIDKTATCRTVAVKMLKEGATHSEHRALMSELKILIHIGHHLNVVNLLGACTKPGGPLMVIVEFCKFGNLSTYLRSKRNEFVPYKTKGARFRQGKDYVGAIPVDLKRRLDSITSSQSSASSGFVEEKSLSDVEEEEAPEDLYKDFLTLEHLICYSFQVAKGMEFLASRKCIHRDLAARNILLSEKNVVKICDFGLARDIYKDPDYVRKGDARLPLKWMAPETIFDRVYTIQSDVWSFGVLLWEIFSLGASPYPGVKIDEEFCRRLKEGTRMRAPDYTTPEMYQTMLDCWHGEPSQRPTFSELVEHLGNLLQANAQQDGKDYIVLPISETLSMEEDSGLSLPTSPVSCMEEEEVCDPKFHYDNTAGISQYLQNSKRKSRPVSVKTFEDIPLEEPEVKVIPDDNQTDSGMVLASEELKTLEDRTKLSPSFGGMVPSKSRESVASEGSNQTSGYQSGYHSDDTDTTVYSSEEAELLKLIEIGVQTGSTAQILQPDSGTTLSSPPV

[14] = target: T2, Vascular endothelial growth factor receptor 2; assay: Inhibition of human VEGFR2 by KINOMEscan analysis
[15] = Inhibition of cell viability in human UMUC14 cells harboring FGFR3 S249C mutant incubated for 72 to 120 hrs by Cell Titer Glo assay; assay type: functional, cell-based
[16] = target: Fibroblast growth factor receptor 4 (Homo sapiens, UniProt P22455); assay: Inhibition of human FGFR4 by KINOMEscan analysis
[17] = Apparent permeability in human Caco-2 cells; assay type: ADME, cell-based
[18] = target: Tyrosine-protein kinase JAK3 (Homo sapiens, UniProt P52333); assay: Inhibition of human JAK3 by KINOMEscan analysis
[19] = target: Fibroblast growth factor receptor 3 (Homo sapiens, UniProt P22607, K650E); assay: Inhibition of FGFR3 K650E mutant (unknown origin) by mobility shift assay
[20] = target: Fibroblast growth factor receptor 3 (Homo sapiens, UniProt P22607, V555L); assay: Inhibition of FGFR3 V555L mutant (unknown origin) by mobility shift assay
[21] = target: Fibroblast growth factor receptor 3 (Homo sapiens, UniProt P22607, G380R); assay: Inhibition of FGFR3 G380R mutant (unknown origin) by NanoBRET assay
[22] = target: Fibroblast growth factor receptor 3 (Homo sapiens, UniProt P22607, V555M); assay: Inhibition of FGFR3 V555M mutant (unknown origin) by mobility shift assay
[23] = target: Tyrosine-protein kinase JAK2 (Homo sapiens, UniProt O60674); assay: Inhibition of human JAK2 by KINOMEscan analysis
[24] = Inhibition of cell viability in human UMUC14 cells harboring FGFR3 V555M mutant incubated for 72 to 120 hrs by Cell Titer Glo assay; assay type: functional, cell-based
[25] = target: Vascular endothelial growth factor receptor 3 (Homo sapiens, UniProt P35916); assay: Inhibition of human FLT4 by KINOMEscan analysis
[26] = target: T1, Fibroblast growth factor receptor 3; assay: Inhibition of wild-type FGFR3 (unknown origin) by NanoBRET assay
[27] = Inhibition of recombinant FGFR3/BAIAP2L1 (unknown origin) transduced in mouse BaF3 cells incubated for 48 hrs by Cell Titer Glo assay; assay type: cell-based; conditions: BaF3, 48 h
KG-1 = assay: Inhibition of cell viability in human KG-1 cells harboring FGFR1-fusion incubated for 72 to 120 hrs by Cell Titer Glo assay; assay type: functional, cell-based
[28] = AUC (last) in monkey at 1 mg/kg, iv measured for 24 hrs by LC-MS/MS analysis; assay type: ADME, organism-based, Macaca mulatta; conditions: rhesus monkey, in vivo
[29] = Half life in dog at 10 mg/kg, po measured for 24 hrs by LC-MS/MS analysis; assay type: ADME, organism-based, Canis lupus familiaris; conditions: in vivo
[30] = Stability in human hepatocytes assessed as half life at 1 uM incubated upto 180 mins by LC-MS/MS analysis; assay type: ADME, cell-based, Hepatocyte
[31] = Stability in human hepatocytes assessed as intrinsic clearance at 1 uM incubated upto 180 mins by LC-MS/MS analysis; assay type: ADME, cell-based, Hepatocyte; conditions: read-out: CLH
[32] = Tmax in monkey at 10 mg/kg, po measured for 24 hrs by LC-MS/MS analysis; assay type: ADME, organism-based, Macaca mulatta; conditions: rhesus monkey, in vivo
[33] = Clearance in dog at 1 mg/kg, iv measured for 24 hrs by LC-MS/MS analysis; assay type: ADME, organism-based, Canis lupus familiaris; conditions: in vivo
[34] = Stability in mouse hepatocytes assessed as half life at 1 uM incubated upto 180 mins by LC-MS/MS analysis; assay type: ADME, cell-based, Hepatocyte
[35] = AUC (last) in Sprague-Dawley rat at 2 mg/kg, iv measured for 24 hrs by LC-MS/MS analysis; assay type: ADME, organism-based; conditions: in vivo
[36] = AUC (last) in monkey at 10 mg/kg, po measured for 24 hrs by LC-MS/MS analysis; assay type: ADME, organism-based, Macaca mulatta; conditions: rhesus monkey, in vivo
[37] = Oral bioavailability in monkey at 10 mg/kg measured for 24 hrs by LC-MS/MS analysis; assay type: ADME, organism-based, Macaca mulatta; conditions: rhesus monkey, in vivo
[38] = Half life in monkey at 1 mg/kg, iv measured for 24 hrs by LC-MS/MS analysis; assay type: ADME, organism-based, Macaca mulatta; conditions: rhesus monkey, in vivo
[39] = target: Fibroblast growth factor receptor 3 (Homo sapiens, UniProt P22607, N540K); assay: Inhibition of FGFR3 N540K mutant (unknown origin) by NanoBRET assay
Fibroblast growth factor receptor 3 (Homo sapiens, UniProt P22607, N540K), sequence (P22607 23-806 N540K limits assumed): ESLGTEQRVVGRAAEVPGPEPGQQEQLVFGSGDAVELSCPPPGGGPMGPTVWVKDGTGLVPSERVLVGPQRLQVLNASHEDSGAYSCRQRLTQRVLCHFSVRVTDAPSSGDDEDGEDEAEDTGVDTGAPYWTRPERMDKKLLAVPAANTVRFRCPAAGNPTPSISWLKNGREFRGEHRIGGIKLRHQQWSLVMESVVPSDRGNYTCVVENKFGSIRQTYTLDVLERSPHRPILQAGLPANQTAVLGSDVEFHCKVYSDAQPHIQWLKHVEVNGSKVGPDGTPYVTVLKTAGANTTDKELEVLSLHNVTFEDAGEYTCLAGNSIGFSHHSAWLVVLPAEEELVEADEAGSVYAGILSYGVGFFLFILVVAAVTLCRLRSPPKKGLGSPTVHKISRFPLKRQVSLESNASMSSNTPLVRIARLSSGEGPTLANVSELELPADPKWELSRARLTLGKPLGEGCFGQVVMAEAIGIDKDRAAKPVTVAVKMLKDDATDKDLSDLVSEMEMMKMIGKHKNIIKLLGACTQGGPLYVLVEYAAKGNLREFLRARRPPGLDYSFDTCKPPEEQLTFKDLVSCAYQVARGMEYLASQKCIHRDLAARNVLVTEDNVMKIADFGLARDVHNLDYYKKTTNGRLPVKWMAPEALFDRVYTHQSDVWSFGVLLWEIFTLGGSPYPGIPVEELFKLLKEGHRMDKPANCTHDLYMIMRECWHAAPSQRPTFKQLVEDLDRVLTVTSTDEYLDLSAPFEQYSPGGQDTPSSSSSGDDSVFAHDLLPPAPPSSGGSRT

[40] = target: Fibroblast growth factor receptor 3 (Homo sapiens, UniProt P22607, K650M); assay: Inhibition of FGFR3 K650M mutant (unknown origin) by mobility shift assay
DMS-114 = assay: Inhibition of cell viability in human DMS-114 cells harboring FGFR1-amplification incubated for 72 to 120 hrs by Cell Titer Glo assay; assay type: functional, cell-based
[41] = Cmax in monkey at 10 mg/kg, po measured for 24 hrs by LC-MS/MS analysis; assay type: ADME, organism-based, Macaca mulatta; conditions: rhesus monkey, in vivo
RT112/84 = assay: cells; assay type: functional, cell-based; conditions: Homo sapiens
Description: Inhibition of cell viability in human RT112/84 cells harboring FGFR3 V555M mutant incubated for 72 to 120 hrs by Cell Titer Glo assay

[42] = Tmax in dog at 10 mg/kg, po measured for 24 hrs by LC-MS/MS analysis; assay type: ADME, organism-based, Canis lupus familiaris; conditions: in vivo
[43] = Thermodynamic solubility in FeSSIF; assay type: ADME; conditions: read-out: Therm_solubility

SMILES: C[C@@H](Oc1ccc2[nH]nc(-c3ccc(N4CC5(C4)CN(S(C)(=O)=O)C5)nc3)c2c1)c1c(Cl)cncc1Cl
- bioavailability [1]: 98%
- clearance [2]: 11.1 mL/min/kg
- AUC(0-t) at 24 h [3]: 5930 ng·h/mL
- IC50 (RT-4): 10 nM
- IC50 [4]: 108 nM
- IC50 [5]: 1.6 nM
- Vd [6]: 0.94 L/kg
- half-life at 1 µM [7]: 1.23 h
- IC50 [8]: 9300 nM
- half-life at 1 µM [9]: > 1.67 h
- half-life [10]: 1.93 h
- half-life [11]: 5.52 h
- Cmax [12]: 802 ng/mL
- inhibition [13]: < 90%
- IC50 [14]: 325 nM
- IC50 [15]: 16 nM
- IC50 [16]: 11 nM
- Papp [17]: 1.1 ×10⁻⁶ cm/s
- IC50 [18]: 206 nM
- IC50 [19]: 2.8 nM
- IC50 [20]: 1.5 nM
- IC50 [21]: 21 nM
- IC50 [22]: 2 nM
- IC50 [23]: 36 nM
- IC50 [24]: 21 nM
- IC50 [25]: 2.1 nM
- IC50 [26]: 21 nM
- IC50 [27]: 11 nM
- IC50 (KG-1): 109 nM
- AUC(0-t) at 24 h [28]: 1500 ng·h/mL
- half-life [29]: 24.8 h
- half-life at 1 µM [30]: > 1.67 h
- CLint scaled at 1 µM [31]: 14 mL/min/kg
- Tmax [32]: 6 h
- clearance [33]: 2.68 mL/min/kg
- half-life at 1 µM [34]: > 1.67 h
- AUC(0-t) at 24 h [35]: 1730 ng·h/mL
- AUC(0-t) at 24 h [36]: 15900 ng·h/mL
- bioavailability [37]: 106%
- half-life [38]: 1.17 h
- IC50 [39]: 73 nM
- IC50 [40]: 2.3 nM
- IC50 (DMS-114): 205 nM
- Cmax [41]: 1210 ng/mL
- IC50 (RT112/84): 17 nM
- Tmax [42]: 6 h
- solubility thermodynamic [43]: 514 µM (≈ 288 µg/mL)
